Values quoted from earlier work in publication PMC9410468 (Marine Drugs, 2022).

Test system: rats
Conditions: rat, in vivo; cited from earlier work
From the text: In the mammalian brain, the medial habenula (MHB) expresses high nAChR levels. Recently, α3-containing nAChRs present in the medial habenula have attracted substantial attention because of their potential role in influencing nicotine addiction. In addition, recent studies have shown that the gene polymorphism of the α3 and β4 subunits in vivo are related to nicotine addiction and drug abuse. The α3β4 nAChR subtype is mainly located in the MHB, […] (IPN), and fasciculus retroflexus (FR) of the rat brain. In addition, it is also expres ...

AT-1001
effect on nicotine self-administration (in words): reduce nicotine self-administration in rats
